Measurements: the NIST ThermoML archive (doi:10.1021/acs.jced.8b00879)
± gives the expanded uncertainty stated by the source.

Assay: mn = molality of the nth substance listed, in mol/kg
Conditions: 85 kPa, Liquid; for viscosity: Capillary tube (Ostwald / Ubbelohde) method; for speed of sound: Frequency=3 MHz, Single path-length method; for mass density: Vibrating tube method

C[N+](C)(C)CCO.O=C([O-])[C@@H]1CCCN1 [2-hydroxy-N,N,N-trimethylethanaminium L-prolinate] + O
Conditions	mass density [kg/m3]	speed of sound [m/s]	viscosity [mPa·s]
288.15 K, m1 = 0.0136	999.51 ± 0.33	1468.7 ± 1.2	1.325 ± 0.12
288.15 K, m1 = 0.0217	999.76 ± 0.33	1469.9 ± 1.2	1.337 ± 0.12
288.15 K, m1 = 0.0329	1000.09 ± 0.32	1471.5 ± 1.2	1.351 ± 0.12
288.15 K, m1 = 0.044	1000.42 ± 0.32	1473.1 ± 1.2	1.364 ± 0.12
288.15 K, m1 = 0.0525	1000.67 ± 0.32	1474.2 ± 1.2	1.375 ± 0.12
288.15 K, m1 = 0.0626	1000.96 ± 0.32	1475.6 ± 1.2	1.388 ± 0.12
298.15 K, m1 = 0.0136	997.47 ± 0.32	1499 ± 1.1	1.059 ± 0.12
298.15 K, m1 = 0.0217	997.71 ± 0.33	1500.2 ± 1.2	1.067 ± 0.12
298.15 K, m1 = 0.0329	998.05 ± 0.33	1501.8 ± 1.2	1.077 ± 0.12
298.15 K, m1 = 0.044	998.38 ± 0.32	1503.4 ± 1.1	1.089 ± 0.12
298.15 K, m1 = 0.0525	998.63 ± 0.33	1504.5 ± 1.2	1.096 ± 0.12
298.15 K, m1 = 0.0626	998.92 ± 0.3	1505.9 ± 1.1	1.104 ± 0.12
308.15 K, m1 = 0.0136	994.45 ± 0.32	1522.1 ± 1.1	0.879 ± 0.12
308.15 K, m1 = 0.0217	994.7 ± 0.33	1523.3 ± 1.2	0.884 ± 0.12
308.15 K, m1 = 0.0329	995.04 ± 0.33	1524.8 ± 1.2	0.894 ± 0.12
308.15 K, m1 = 0.044	995.37 ± 0.32	1526.4 ± 1.1	0.902 ± 0.12
308.15 K, m1 = 0.0525	995.63 ± 0.33	1527.5 ± 1.2	0.908 ± 0.12
308.15 K, m1 = 0.0626	995.92 ± 0.3	1528.9 ± 1.1	0.916 ± 0.12
318.15 K, m1 = 0.0136	990.64 ± 0.33	1538 ± 1.2	0.74 ± 0.12
318.15 K, m1 = 0.0217	990.9 ± 0.33	1539.1 ± 1.2	0.746 ± 0.12
318.15 K, m1 = 0.0329	991.24 ± 0.33	1540.7 ± 1.2	0.753 ± 0.12
318.15 K, m1 = 0.044	991.58 ± 0.33	1542.2 ± 1.2	0.76 ± 0.12
318.15 K, m1 = 0.0525	991.84 ± 0.33	1543.3 ± 1.1	0.764 ± 0.12
318.15 K, m1 = 0.0626	992.13 ± 0.33	1544.6 ± 1.1	0.772 ± 0.12

C[N+](C)(C)CCO.NCC(=O)[O-] [2-hydroxy-N,N,N-trimethylethanaminium glycinate] + O
Conditions	mass density [kg/m3]	speed of sound [m/s]	viscosity [mPa·s]
288.15 K, m1 = 0.0111	999.43 ± 0.32	1468.1 ± 1.2	1.251 ± 0.12
288.15 K, m1 = 0.0214	999.73 ± 0.32	1469.5 ± 1.2	1.263 ± 0.12
288.15 K, m1 = 0.0318	1000.03 ± 0.32	1470.8 ± 1.2	1.275 ± 0.12
288.15 K, m1 = 0.0417	1000.3 ± 0.32	1472.1 ± 1.2	1.288 ± 0.12
288.15 K, m1 = 0.0534	1000.63 ± 0.32	1473.6 ± 1.2	1.302 ± 0.12
288.15 K, m1 = 0.0619	1000.85 ± 0.32	1474.7 ± 1.2	1.313 ± 0.12
298.15 K, m1 = 0.0111	997.68 ± 0.32	1498.2 ± 1.1	1 ± 0.12
298.15 K, m1 = 0.0214	997.97 ± 0.32	1499.4 ± 1.1	1.011 ± 0.12
298.15 K, m1 = 0.0318	998.25 ± 0.32	1500.6 ± 1.1	1.02 ± 0.12
298.15 K, m1 = 0.0417	998.57 ± 0.32	1501.7 ± 1.1	1.03 ± 0.12
298.15 K, m1 = 0.0534	998.8 ± 0.37	1503 ± 1.1	1.042 ± 0.12
298.15 K, m1 = 0.0619	997.38 ± 0.48	1504 ± 1.2	1.049 ± 0.12
308.15 K, m1 = 0.0111	994.36 ± 0.33	1521.1 ± 1.1	0.832 ± 0.12
308.15 K, m1 = 0.0214	994.66 ± 0.33	1522.2 ± 1.1	0.841 ± 0.12
308.15 K, m1 = 0.0318	994.96 ± 0.32	1523.2 ± 1.1	0.851 ± 0.12
308.15 K, m1 = 0.0417	995.24 ± 0.32	1524.1 ± 1.1	0.858 ± 0.12
308.15 K, m1 = 0.0534	995.56 ± 0.32	1525.2 ± 1.1	0.869 ± 0.12
308.15 K, m1 = 0.0619	995.79 ± 0.39	1526 ± 1.2	0.877 ± 0.12
318.15 K, m1 = 0.0111	990.55 ± 0.33	1536.9 ± 1.1	0.706 ± 0.12
318.15 K, m1 = 0.0214	990.85 ± 0.33	1537.7 ± 1.1	0.714 ± 0.12
318.15 K, m1 = 0.0318	991.15 ± 0.33	1538.6 ± 1.1	0.722 ± 0.12
318.15 K, m1 = 0.0417	991.43 ± 0.32	1539.4 ± 1.1	0.729 ± 0.12
318.15 K, m1 = 0.0534	991.75 ± 0.32	1540.5 ± 1.1	0.737 ± 0.12
318.15 K, m1 = 0.0619	991.99 ± 0.32	1541.2 ± 1.1	0.741 ± 0.12
